Data set [1] relates to C57B1/6 mice. The data set is described as follows: anti-AAV8 IgM and IgG titers (ELISA on empty AAV8 capsids) after rAAV8 administration in mice. The class given is in vivo. On the procedure: (§1) FIG. 1. rAAV8 readministration in mice and Dasatinib treatment. C57B1/6 mice were intravenously dosed on study day 1 with a rAAV8 encoding the hSEAP (human secreted alkaline phosphatase) at the dose of 1E12 vg/kg. On study day 22, they received a second rAAV8 encoding hFIX (human Factor IX) at the dose of 5E13 vg/kg. […] Group 2 (immunized mice, n=10) received both rAAV8 injections. Group 3 mice (n=10) received the two rAAV8 injections and were treated by oral gavage with 50 mg/kg dasatinib twice per day for 7 days starting on the day of first rAAV8 dosing. Blood samples were collected one day before and every 7 days after the first rAAV8 treatment.
(§2) FIGS. 2A-2C. Effects of dasatinib treatment on anti-AAV8 IgM titers. Serum was isolated from blood collected on study days 0, 8, 15, 21, 29 and 36 (FIG. 1) and anti-AA V8 IgM measured by ELISA, performed on immobilized empty AAV8 capsids. IgM antibody titers were determined by ELISA OD values of serial dilutions (1:10 and 7-step serial dilution 1:3). For the determination of mean background level, readouts were pooled from all mouse groups at day 0. The positivity threshold is represented by the dotted line. The kinetics of anti-AAV8 IgM antibody titers is shown for each mouse group (FIGS. 2A-2C). The empty circles represent titers under the threshold, and crossed circles represent titers above the threshold.
as §2, with “FIGS. 3A-3C.” for “FIGS. 2A-2C.”, “anti-AAV8 IgG” for “anti-AAV8 IgM”, “and anti-AAV8 IgG” for “and anti-AA V8 IgM”, “capsids. IgG” for “capsids. IgM”, “of anti-AA V8 IgG” for “of anti-AAV8 IgM”, “(FIGS. 3A-3C).” for “(FIGS. 2A-2C).”
To assess whether dasatinib could efficiently prevent anti-AAV antibody formation after rAAV administration and allow efficient re-administration of rAAV, a study was conducted in mice (FIG. 1). Groups of C57B1/6 mice were intravenously dosed with a first rAAV8 encoding hSEAP (human secreted alkaline phosphatase, under control of a CMV promoter) at the dose of 1E12vg/kg on study day 1. On study day 22, they were dosed with a second rAAV8 encoding hFIX (human Factor IX, under control of a CMV promoter) at the dose of 5E13 vg/kg. […] Group 3 mice were treated with Dasatinib at the dose of 50 mg/kg by oral gavage twice per day for 7 days, starting on the day of first rAAV8 dosing. […]

Data set [2] concerns C57B1/6 mice. The experiment in a line: transgene expression (hSEAP, hFIX) in serum following rAAV8 re-administration. The class given is in vivo. On the procedure: as §1
FIGS. 4A-4B. Dasatinib treatment allows transgene expression following rAAV re-administration. Serum was isolated from blood collected on study days 0, 8, 15, 21, 29 and 36 (FIG. 1). (FIG. 4A) Expression of the first transgene hSEAP was measured by chemiluminescence. (FIG. 4B) After AAV8 re-administration, expression of the second transgene hFactorIX was measured by ELISA. Mean concentrations are shown +/−SD.
To assess whether dasatinib could efficiently prevent anti-AAV antibody formation after rAAV administration and allow efficient re-administration of rAAV, a study was conducted in mice (FIG. 1). Groups of C57B1/6 mice were intravenously dosed with a first rAAV8 encoding hSEAP (human secreted alkaline phosphatase, under control of a CMV promoter) at the dose of 1E12vg/kg on study day 1. On study day 22, they were dosed with a second rAAV8 encoding hFIX (human Factor IX, under control of a CMV promoter) at the dose of 5E13 vg/kg. […]
Expression of the first transgene hSEAP and second transgene hFIX were measured in the serum samples from the experiment presented above (FIG. 1, Example 1). As expected, human SEAP was detected in the serum of mice from Groups 2 and 3, already 7 days after injection of AAV8-hSEAP on study day 1 (FIG. 4A). […] In contrast, hFIX expression was detected in the serum of all mice from the non-immunized Group 1 (mean: 2107 ng/ml) as well as in most mice from the dasatinib-treated Group 3 (average: 1398 ng/ml).

For data set [3] the following is noted: Lindauer M et al, 2010; cited from earlier work.

Regarding `Cc1nc(Nc2ncc(C(=O)Nc3c(C)cccc3Cl)s2)cc(N2CCN(CCO)CC2)n1` [dasatinib, N-(2-chloro-6-methylphenyl)-2-[[6-[4-(2-hydroxyethyl)-1-piperazinyl]-2-methyl-4-pyrimidinyl]amino]-5-thiazole carboxamide monohydrate], the “anti-AAV8 IgG titers compared with immunized control Group 2” value in data set [1] (Group 3, 50 mg/kg oral gavage twice per day for 7 days) is on record as “drastically reduced”. The “anti-AAV8 IgM in serum versus positivity threshold” value in data set [1] (Group 3, 50 mg/kg oral gavage twice per day for 7 days from first rAAV8 dosing, until administration of second rAAV8 (day 22)) is “remained underthe IgM positivity threshold”. In data set [1] (Group 3, study day 21, 50 mg/kg oral twice per day for 7 days), the “mice above the anti-AAV8 IgG positivity threshold” value was 4/10. Besides, the “anti-AAV8 IgG titers after rAAV8 re-administration” value in data set [1] (day 36, two weeks after rAAV8 re-administration) is “comparable in all mouse groups”. In addition, the “human SEAP in serum” value in data set [2] (Group 3, 7 days after AAV8-hSEAP on study day 1) is listed as “detected”. Moreover, in data set [2] (Group 3, after AAV8-hFIX 5E13 vg/kg on day 22, dasatinib 50 mg/kg twice per day for 7 days at first rAAV8 dosing), the “hFIX expression in serum (average)” value was determined as 1398 ng/mL. Further, the “hFIX expression detected in serum” value in data set [2] (Group 3, after second rAAV8 on day 22) is listed as “in most mice”. Also, the half-life entry in data set [3] is “very short”.

(Values after US20260000670A1 (priority 2022, published 2026).)
